target: T1, HPK1 kinase (aa1-346, Life Technologies) (Homo sapiens, UniProt Q92918); assay: HPK Kinase Activity Assay at 1 mM ATP (TR-FRET); assay type: biochemical; details: HPK1 kinase 40 nM, 0.5 μM STK1 substrate, read-out: Enzymatic activity IC50
T1 construct: HPK1 kinase (aa1-346, Life Technologies); purchased Life Technologies
T1 sequence (Q92918 1-346): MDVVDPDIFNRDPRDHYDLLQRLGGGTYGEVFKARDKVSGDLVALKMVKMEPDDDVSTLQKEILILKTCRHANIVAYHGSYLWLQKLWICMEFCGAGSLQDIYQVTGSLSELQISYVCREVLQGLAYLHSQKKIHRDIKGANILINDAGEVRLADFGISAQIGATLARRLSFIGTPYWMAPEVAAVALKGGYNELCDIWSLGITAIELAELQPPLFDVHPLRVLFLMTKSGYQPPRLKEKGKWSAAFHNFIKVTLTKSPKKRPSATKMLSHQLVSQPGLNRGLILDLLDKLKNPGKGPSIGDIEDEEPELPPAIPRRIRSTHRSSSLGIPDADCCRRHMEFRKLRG
Method: HPK Kinase Activity Assay at 1 mM ATP
Compounds disclosed herein were tested for inhibition of HPK1 kinase (aa1-346, Life Technologies) activity in assays based on the time-resolved fluorescence-resonance energy transfer (TR-FRET) methodology. The assays were carried out in 384-well low volume black plates in a reaction mixture containing HPK1 kinase (40 nM), 1 mM ATP, 0.5 μM STK1 substrate and 0-10 μM compound in buffer containing 50 mM HEPES, 0.01% BSA, 0.1 mM Orthovanadate, 10 mM MgCl2, 1 mM DTT, pH=7.0, 0.005% Tween-20. The kinase was incubated with the compounds disclosed herein or DMSO for 60 minutes at room temperature and the reaction was initiated by the addition of ATP and STK1 substrate. After reaction at room temperature for 120 minutes, an equal volume of stop/detection solution was added according to the manufacture's instruction (CisBio). The stop/detection solution contained STK Antibody-Cryptate and XL665-conjugated streptavidin in Detection Buffer. The TR-FRET signals (ratio of fluorescence emission at 665 nm over emission at 620 nm with excitation at 337 nm wavelength) were recorded on a PHERAstar FS plate reader (BMG Labtech). Phosphorylation of STK1 substrate led to the binding of STK Antibody-Cryptate to the biotinylated STK1 substrate, which places fluorescent donor (Eu^3+ crypate) in close proximity to the accepter (Streptavidin-XL665), thus resulting in a high degree of fluorescence resonance energy transfer. The inhibition of HPK1 in presence of increasing concentrations of compounds was calculated based on the ratio of fluorescence at 665 nm to that at 620 nm. The IC50 for each compound was derived from fitting the data to the four-parameter logistic equation by Graphpad Prism software.

Row | SMILES | IC50
1 | COc1c(COc2nc(-c3cc(C)c4c(c3)CN(C)CC4)cnc2N)ccnc1N [Example 35, 3-((2-amino-3-methoxypyridin-4-yl)methoxy)-5-(2,5-dimethyl-1,2,3,4-tetrahydroisoquinolin-7-yl)pyrazin-2-amine] | 16 nM
2 | Cc1cc(-c2cnc(N)c(OCc3ccnc(NCC4CC4)c3)n2)cc2c1CCN(C)C2 [Example 38, 3-((2-((cyclopropylmethyl)amino)pyridin-4-yl)methoxy)-5-(2,5-dimethyl-1,2,3,4-tetrahydroisoquinolin-7-yl)pyrazin-2-amine] | 57 nM
3 | CCOc1c(COc2nc(-c3cc(C)c4c(c3)CN(C)CC4)cnc2N)ccnc1N [Example 41, 3-((2-amino-3-ethoxypyridin-4-yl)methoxy)-5-(2,5-dimethyl-1,2,3,4-tetrahydroisoquinolin-7-yl)pyrazin-2-amine] | 8.9 nM
4 | Cc1cc(-c2cnc(N)c(OCc3ccncc3Oc3ccccc3)n2)cc2c1CCN(C)C2 [Example 42, 5-(2,5-dimethyl-1,2,3,4-tetrahydroisoquinolin-7-yl)-3-((3-phenoxypyridin-4-yl)methoxy)pyrazin-2-amine] | 94 nM
5 | Cc1cc(-c2cnc(N)c(OCc3cc[nH]n3)n2)cc2c1CCN(C)C2 [Example 43, 3-((1H-pyrazol-3-yl)methoxy)-5-(2,5-dimethyl-1,2,3,4-tetrahydroisoquinolin-7-yl)pyrazin-2-amine] | 56 nM
6 | Cc1cc(-c2cnc(N)c(OCc3ccnc4[nH]cnc34)n2)cc2c1CCN(C)C2 [Example 44, 3-((3H-imidazo[4,5-b]pyridin-7-yl)methoxy)-5-(2,5-dimethyl-1,2,3,4-tetrahydroisoquinolin-7-yl)pyrazin-2-amine and 3-((1H-imidazo[4,5-b]pyridin-7-yl)methoxy)-5-(2,5-dimethyl-1,2,3,4-tetrahydroisoquinolin-7-yl)pyrazin-2-amine] | 19 nM
7 | CCn1cc(Oc2nc(-c3cc(C)c4c(c3)CN(C)CC4)cnc2N)cn1 [Example 45, 5-(2,5-dimethyl-1,2,3,4-tetrahydroisoquinolin-7-yl)-3-(1-ethyl-1H-pyrazol-4-yloxy)pyrazin-2-amine] | 15 nM
8 | Cc1cc(-c2cnc(N)c(O[C@H](C)c3c(Cl)ccc(C(=O)NC4CC4)c3Cl)n2)cc2c1CCN(C)C2 [Example 47A, (R)-3-(1-(3-amino-6-(2,5-dimethyl-1,2,3,4-tetrahydroisoquinolin-7-yl)pyrazin-2-yloxy)ethyl)-2,4-dichloro-N-cyclopropylbenzamide] | 47 nM
9 | Cc1cc(-c2cnc(N)c(O[C@@H](C)c3c(Cl)ccc(C(=O)NC4CC4)c3Cl)n2)cc2c1CCN(C)C2 [Example 47B, (S)-3-(1-(3-amino-6-(2,5-dimethyl-1,2,3,4-tetrahydroisoquinolin-7-yl)pyrazin-2-yloxy)ethyl)-2,4-dichloro-N-cyclopropylbenzamide] | 2680 nM
10 | COc1cnccc1COc1nc(-c2cc3c(c(OC)c2)CCN(C)C3)cnc1N [Example 180, 5-(5-methoxy-2-methyl-1,2,3,4-tetrahydroisoquinolin-7-yl)-3-((3-methoxypyridin-4-yl)methoxy)pyrazin-2-amine] | 21 nM
11 | COc1cnc2[nH]ccc2c1COc1nc(-c2cc(C)c3c(c2)CN(C)CC3)cnc1N [Example 188, 5-(2,5-dimethyl-1,2,3,4-tetrahydroisoquinolin-7-yl)-3-((5-methoxy-1H-pyrrolo[2,3-b]pyridin-4-yl)methoxy)pyrazin-2-amine] | 8.1 nM
12 | Cc1cc(-c2cnc(N)c(Oc3cnn(C(C)C)c3)n2)cc2c1CN(C)CC2 [Example 242, 5-(2,8-dimethyl-1,2,3,4-tetrahydroisoquinolin-6-yl)-3-(1-isopropyl-1H-pyrazol-4-yloxy)pyrazin-2-amine] | 54 nM
13 | CN1CCc2c(cc(-c3cnc(N)c(OCc4ccnc(N)c4)n3)cc2C(F)(F)F)C1 [Example 271, 3-((2-aminopyridin-4-yl)methoxy)-5-(2-methyl-5-(trifluoromethyl)-1,2,3,4-tetrahydroisoquinolin-7-yl)pyrazin-2-amine] | 11 nM
14 | Cc1cc(-c2cnc(N)c(Oc3cnn(C(C)C)c3)n2)cc2c1CCN(C)C2 [Example 272, 5-(2,5-dimethyl-1,2,3,4-tetrahydroisoquinolin-7-yl)-3-(1-isopropyl-1H-pyrazol-4-yloxy)pyrazin-2-amine] | 8.4 nM
15 | CCn1cc(Oc2nc(-c3cc4c(c(NC)c3)CCN(C)C4)cnc2N)cn1 [Example 275, 7-(5-amino-6-(1-ethyl-1H-pyrazol-4-yloxy)pyrazin-2-yl)-N,2-dimethyl-1,2,3,4-tetrahydroisoquinolin-5-amine] | 14 nM
16 | COCCn1cc(Oc2nc(-c3cc(C)c4c(c3)CN(C)CC4)cnc2N)cn1 [Example 276, 5-(2,5-dimethyl-1,2,3,4-tetrahydroisoquinolin-7-yl)-3-((1-(2-methoxyethyl)-1H-pyrazol-4-yl)oxy)pyrazin-2-amine] | 24 nM

Continued by falling IC50, values first:

Row | IC50 | SMILES
17 | 93 nM | Cc1cc(-c2cnc(N)c(-c3cn[nH]c3)n2)cc2c1CCN(C)C2 [Example 36, 5-(2,5-dimethyl-1,2,3,4-tetrahydroisoquinolin-7-yl)-3-(1H-pyrazol-4-yl)pyrazin-2-amine]
18 | 85 nM | CC(=O)Nc1cc(COc2nc(-c3cc(C)c4c(c3)CN(C)CC4)cnc2N)ccn1 [Example 39, N-(4-(((3-amino-6-(2,5-dimethyl-1,2,3,4-tetrahydroisoquinolin-7-yl)pyrazin-2-yl)oxy)methyl)pyridin-2-yl)acetamide]
19 | 29 nM | CCNc1cc(COc2nc(-c3cc(C)c4c(c3)CN(C)CC4)cnc2N)ccn1 [Example 40, 5-(2,5-dimethyl-1,2,3,4-tetrahydroisoquinolin-7-yl)-3-((2-(ethylamino)pyridin-4-yl)methoxy)pyrazin-2-amine]
20 | 24 nM | CCn1cc(Oc2nc(-c3cc4c(c(OC)c3)CCN(C)C4)cnc2N)cn1 [Example 274, 3-(1-ethyl-1H-pyrazol-4-yloxy)-5-(5-methoxy-2-methyl-1,2,3,4-tetrahydroisoquinolin-7-yl)pyrazin-2-amine]
21 | 21 nM | Cc1cc(-c2cnc(N)c(-n3cc(C(=O)N(C)C)cn3)n2)cc2c1CCN(C)C2 [Example 46, 1-(3-amino-6-(2,5-dimethyl-1,2,3,4-tetrahydroisoquinolin-7-yl)pyrazin-2-yl)-N,N-dimethyl-1H-pyrazole-4-carboxamide]
22 | 21 nM | Cc1cc(-c2cnc(N)c(OCc3ccnc(N)c3Cl)n2)cc2c1CCN(C)C2 [Example 152, 3-((2-amino-3-chloropyridin-4-yl)methoxy)-5-(2,5-dimethyl-1,2,3,4-tetrahydroisoquinolin-7-yl)pyrazin-2-amine]
23 | 16 nM | Cc1cc(-c2cnc(N)c(OCc3ccncc3OC3CC3)n2)cc2c1CCN(C)C2 [Example 149, 3-((3-cyclopropoxypyridin-4-yl)methoxy)-5-(2,5-dimethyl-1,2,3,4-tetrahydroisoquinolin-7-yl)pyrazin-2-amine]
24 | 12 nM | CNc1cc(-c2cnc(N)c(OCc3ccncc3OC)n2)cc2c1CCN(C)C2 [Example 205, 7-(5-amino-6-((3-methoxypyridin-4-yl)methoxy)pyrazin-2-yl)-N,2-dimethyl-1,2,3,4-tetrahydroisoquinolin-5-amine]
25 | 8 nM | Cc1cc(-c2cnc(N)c(OCc3ccnc(N)c3OC3CCOCC3)n2)cc2c1CCN(C)C2 [Example 249, 3-((2-amino-3-((tetrahydro-2H-pyran-4-yl)oxy)pyridin-4-yl)methoxy)-5-(2,5-dimethyl-1,2,3,4-tetrahydroisoquinolin-7-yl)pyrazin-2-amine]
26 | 7.2 nM | COc1cc(-c2cnc(N)c(OCc3ccnc(N)c3)n2)cc2c1CCN(C)C2 [Example 179, 3-((2-aminopyridin-4-yl)methoxy)-5-(5-methoxy-2-methyl-1,2,3,4-tetrahydroisoquinolin-7-yl)pyrazin-2-amine]
27 | 5.1 nM | [2H]C([2H])(Oc1nc(-c2cc(C)c3c(c2)CN(C)CC3)cnc1N)c1ccnc(N)c1 [Example 266, 3-((2-aminopyridin-4-yl)methoxy-d2)-5-(2,5-dimethyl-1,2,3,4-tetrahydroisoquinolin-7-yl)pyrazin-2-amine]
28 | 4 nM | Cc1cc(-c2cnc(N)c(OCc3cc(N)nc(N)c3)n2)cc2c1CCN(C)C2 [Example 222, 4-((3-amino-6-(2,5-dimethyl-1,2,3,4-tetrahydroisoquinolin-7-yl)pyrazin-2-yloxy)methyl)pyridine-2,6-diamine]

Source: patent publication US12673933B2, “Aminopyrazine compounds as HPK1 inhibitor and the use thereof” (BEIGENE, LTD., priority 2019, dated 2026)
